Data as given in the NIST ThermoML archive (doi:10.1016/j.fluid.2005.05.015).
Numbers after ± are expanded uncertainties.

Settings: Crystal 1; visual observation

Normal melting temperature: 268.30 ± 1 °C
Compound: CC[N+](C)(C)CCO.[Br-] [ethyl(2-hydroxyethyl)dimethylammonium bromide]
